Laboratory results: ChEMBL document CHEMBL4387728, “Synthetic glycopeptides reveal specific binding pattern and conformational change at O-mannosylated position of α-dystroglycan by POMGnT1 catalyzed GlcNAc modification” (Bioorg Med Chem, 2019)
Active and inactive are the calls of the source. The rule behind the calls is not given here. Peptide text beside a SMILES is read from it. * marks the point of attachment. X2 = CC(=O)N[C@H]1[C@H](O[C@H]2[C@@H](O)[C@H](O)[C@@H](CO)O[C@@H]2*)O[C@H](CO)[C@@H](O[C@@H]2O[C@H](CO)[C@H](O)[C@H](O)[C@H]2O)[C@@H]1O; Hexanoyl(5-oxo) = CC(=O)CCCC(=O)*

Key:
Canavalia ensiformis = test: Binding affinity to biotin-labeled Canavalia ensiformis agglutinin in pH 7.4 Tris buffer by fluorescence microarray method
[1] = tested on: Sambucus racemosa subsp. sieboldiana; test: Binding affinity to biotin-labeled Sambucus sieboldiana agglutinin in pH 7.4 Tris buffer by fluorescence microarray method
Triticum aestivum = test: Binding affinity to biotin-labeled Wheat germ agglutinin in pH 7.4 Tris buffer by fluorescence microarray method
[2] = target: Laminin subunit alpha-1 (Homo sapiens) (UniProt P25391); test: Binding affinity to biotin-labeled human recombinant laminin-1 at 10 ug/ml in pH 7.4 Tris buffer by fluorescence microarray method
Homo sapiens [3] = species: Homo sapiens; test: Binding affinity to biotin-labeled human recombinant laminin-2 at 10 ug/ml in 5.6 MES buffer by fluorescence microarray method
Erythrina crista-galli = test: Binding affinity to biotin-labeled Erythrina crista-galli agglutinin in pH 7.4 Tris buffer by fluorescence microarray method
[4] = target: Lactotransferrin (Homo sapiens) (UniProt P02788); test: Binding affinity to biotin-labeled lactoferrin (unknown origin) at 10 ug/ml in pH 7.4 Tris buffer by fluorescence microarray method
[5] = target: Lactotransferrin (Homo sapiens) (UniProt P02788); test: Binding affinity to biotin-labeled lactoferrin (unknown origin) at 10 ug/ml in pH 5.6 MES buffer by fluorescence microarray method
[6] = Binding affinity to biotin-labeled Agaricus bisporus agglutinin in pH 7.4 Tris buffer by fluorescence microarray method
[7] = target: Laminin subunit alpha-1 (Homo sapiens) (UniProt P25391); test: Binding affinity to biotin-labeled human recombinant laminin-1 at 10 ug/ml in pH 5.6 MES buffer by fluorescence microarray method
Datura stramonium = test: Binding affinity to biotin-labeled Datura stramonium agglutinin in pH 7.4 Tris buffer by fluorescence microarray method
Maackia amurensis = test: Binding affinity to biotin-labeled Maackia amurensis agglutinin in pH 7.4 Tris buffer by fluorescence microarray method
Arachis hypogaea = test: Binding affinity to biotin-labeled Arachis hypogaea agglutinin in pH 7.4 Tris buffer by fluorescence microarray method
Homo sapiens [8] = species: Homo sapiens; test: Binding affinity to biotin-labeled human recombinant laminin-2 at 10 ug/ml in pH 7.4 Tris buffer by fluorescence microarray method

Sequence of Lactotransferrin (Homo sapiens) (P02788 whole entry): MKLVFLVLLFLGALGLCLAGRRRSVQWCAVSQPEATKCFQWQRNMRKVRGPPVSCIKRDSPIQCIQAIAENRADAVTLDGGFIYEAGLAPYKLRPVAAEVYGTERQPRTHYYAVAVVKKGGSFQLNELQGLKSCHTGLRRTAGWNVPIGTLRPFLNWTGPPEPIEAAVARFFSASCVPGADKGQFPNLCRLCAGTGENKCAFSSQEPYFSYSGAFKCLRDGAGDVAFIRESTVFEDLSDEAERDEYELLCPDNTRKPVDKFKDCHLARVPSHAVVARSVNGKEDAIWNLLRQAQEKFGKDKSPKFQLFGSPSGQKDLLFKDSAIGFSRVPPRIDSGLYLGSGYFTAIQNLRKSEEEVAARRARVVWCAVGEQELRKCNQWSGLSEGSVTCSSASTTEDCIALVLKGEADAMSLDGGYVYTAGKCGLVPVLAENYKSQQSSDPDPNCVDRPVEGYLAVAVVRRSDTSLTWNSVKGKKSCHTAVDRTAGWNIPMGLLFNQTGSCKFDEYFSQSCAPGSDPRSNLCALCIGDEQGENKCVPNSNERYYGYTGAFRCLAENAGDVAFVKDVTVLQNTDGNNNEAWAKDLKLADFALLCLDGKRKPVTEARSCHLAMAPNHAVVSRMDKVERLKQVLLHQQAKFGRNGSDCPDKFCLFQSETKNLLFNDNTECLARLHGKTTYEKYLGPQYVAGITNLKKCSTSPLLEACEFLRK
Sequence of Laminin subunit alpha-1 (Homo sapiens) (P25391 whole entry): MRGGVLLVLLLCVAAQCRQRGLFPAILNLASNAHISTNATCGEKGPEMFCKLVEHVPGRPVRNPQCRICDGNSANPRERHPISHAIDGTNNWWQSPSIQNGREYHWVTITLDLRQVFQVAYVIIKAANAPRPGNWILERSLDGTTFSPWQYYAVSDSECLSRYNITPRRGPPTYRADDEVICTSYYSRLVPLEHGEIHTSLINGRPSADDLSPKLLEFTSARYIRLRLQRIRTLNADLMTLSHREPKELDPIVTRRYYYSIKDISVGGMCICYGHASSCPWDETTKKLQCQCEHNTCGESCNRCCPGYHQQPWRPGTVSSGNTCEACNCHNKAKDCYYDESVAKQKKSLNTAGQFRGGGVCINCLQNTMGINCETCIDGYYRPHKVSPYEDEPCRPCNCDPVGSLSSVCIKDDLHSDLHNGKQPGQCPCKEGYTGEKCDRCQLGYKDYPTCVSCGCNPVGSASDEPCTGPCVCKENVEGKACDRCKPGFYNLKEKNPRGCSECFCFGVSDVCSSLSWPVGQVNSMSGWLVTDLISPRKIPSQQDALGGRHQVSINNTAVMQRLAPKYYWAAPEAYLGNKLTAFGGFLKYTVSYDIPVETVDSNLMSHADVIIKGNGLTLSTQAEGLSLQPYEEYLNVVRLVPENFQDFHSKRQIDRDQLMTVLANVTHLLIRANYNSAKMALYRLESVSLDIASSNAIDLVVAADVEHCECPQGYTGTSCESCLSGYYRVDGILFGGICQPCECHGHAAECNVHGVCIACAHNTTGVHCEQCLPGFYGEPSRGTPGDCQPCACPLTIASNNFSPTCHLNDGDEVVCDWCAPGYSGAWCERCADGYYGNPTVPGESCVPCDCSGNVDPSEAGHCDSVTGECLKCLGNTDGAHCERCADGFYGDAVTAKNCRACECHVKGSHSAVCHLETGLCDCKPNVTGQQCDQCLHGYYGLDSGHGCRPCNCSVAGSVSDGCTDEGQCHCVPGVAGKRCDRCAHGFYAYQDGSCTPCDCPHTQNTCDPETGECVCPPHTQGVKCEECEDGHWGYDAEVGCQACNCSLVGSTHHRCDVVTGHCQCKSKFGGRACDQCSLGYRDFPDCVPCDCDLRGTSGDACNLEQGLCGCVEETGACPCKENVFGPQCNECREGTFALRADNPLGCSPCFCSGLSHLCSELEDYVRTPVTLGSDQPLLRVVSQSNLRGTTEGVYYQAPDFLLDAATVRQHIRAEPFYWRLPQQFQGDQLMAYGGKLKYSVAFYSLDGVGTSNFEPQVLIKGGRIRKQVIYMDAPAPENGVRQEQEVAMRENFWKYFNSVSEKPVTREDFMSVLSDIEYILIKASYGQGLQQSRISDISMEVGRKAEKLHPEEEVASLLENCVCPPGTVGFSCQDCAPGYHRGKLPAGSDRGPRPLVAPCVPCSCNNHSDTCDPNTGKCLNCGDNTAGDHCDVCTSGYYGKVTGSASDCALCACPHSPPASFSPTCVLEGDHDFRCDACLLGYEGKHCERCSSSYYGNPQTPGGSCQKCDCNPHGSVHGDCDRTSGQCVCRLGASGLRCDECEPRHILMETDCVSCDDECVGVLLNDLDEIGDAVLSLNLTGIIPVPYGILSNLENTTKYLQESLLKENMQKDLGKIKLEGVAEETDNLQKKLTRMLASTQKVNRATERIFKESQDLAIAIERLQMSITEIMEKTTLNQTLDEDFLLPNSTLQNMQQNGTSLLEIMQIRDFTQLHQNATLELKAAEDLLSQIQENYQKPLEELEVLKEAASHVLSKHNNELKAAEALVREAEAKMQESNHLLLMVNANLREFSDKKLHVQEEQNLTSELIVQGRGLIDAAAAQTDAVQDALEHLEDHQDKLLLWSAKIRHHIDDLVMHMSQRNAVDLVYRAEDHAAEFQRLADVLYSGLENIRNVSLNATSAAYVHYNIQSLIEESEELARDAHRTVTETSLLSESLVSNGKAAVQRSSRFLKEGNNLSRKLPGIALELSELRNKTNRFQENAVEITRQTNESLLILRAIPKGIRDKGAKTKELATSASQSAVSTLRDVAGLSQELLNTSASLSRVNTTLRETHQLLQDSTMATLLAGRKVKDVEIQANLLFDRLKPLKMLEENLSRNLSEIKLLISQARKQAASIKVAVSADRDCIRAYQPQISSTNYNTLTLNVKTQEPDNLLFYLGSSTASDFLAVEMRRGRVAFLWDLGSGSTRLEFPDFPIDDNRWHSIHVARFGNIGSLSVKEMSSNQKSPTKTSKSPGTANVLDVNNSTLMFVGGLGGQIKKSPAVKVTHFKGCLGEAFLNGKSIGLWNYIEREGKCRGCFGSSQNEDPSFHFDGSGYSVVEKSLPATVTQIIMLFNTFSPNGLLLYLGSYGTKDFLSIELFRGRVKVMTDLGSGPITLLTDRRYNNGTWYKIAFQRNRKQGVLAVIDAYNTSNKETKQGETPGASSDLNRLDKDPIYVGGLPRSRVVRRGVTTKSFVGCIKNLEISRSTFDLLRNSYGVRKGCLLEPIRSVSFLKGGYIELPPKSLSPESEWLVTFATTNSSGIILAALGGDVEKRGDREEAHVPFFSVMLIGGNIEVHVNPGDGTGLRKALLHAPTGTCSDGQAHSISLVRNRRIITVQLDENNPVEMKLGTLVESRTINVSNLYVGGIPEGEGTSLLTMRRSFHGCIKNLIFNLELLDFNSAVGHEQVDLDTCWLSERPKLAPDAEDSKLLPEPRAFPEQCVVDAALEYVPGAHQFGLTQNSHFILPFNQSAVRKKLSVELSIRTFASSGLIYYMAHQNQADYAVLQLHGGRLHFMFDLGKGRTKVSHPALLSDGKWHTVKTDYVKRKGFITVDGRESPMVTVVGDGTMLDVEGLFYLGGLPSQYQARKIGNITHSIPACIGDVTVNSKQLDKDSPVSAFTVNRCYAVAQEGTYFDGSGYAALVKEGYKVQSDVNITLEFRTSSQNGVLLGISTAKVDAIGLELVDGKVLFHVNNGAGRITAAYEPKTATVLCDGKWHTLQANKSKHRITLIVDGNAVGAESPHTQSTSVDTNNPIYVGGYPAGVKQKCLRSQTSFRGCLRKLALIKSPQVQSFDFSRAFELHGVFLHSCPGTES

| Activity (Canavalia ensiformis) | Activity [1] | Activity (Triticum aestivum) | Activity [2] | Activity (Homo sapiens [3]) | Activity (Erythrina crista-galli) | Activity [4] | Activity [5] | Activity [6] | Activity [7] | Activity (Datura stramonium) | Activity (Maackia amurensis) | Activity (Arachis hypogaea) | Activity (Homo sapiens [8]) | Compound |
| --- | --- | --- | --- | --- | --- | --- | --- | --- | --- | --- | --- | --- | --- | --- |
| Active | Active | Active | Active | Active | Active | inactive | Active | Active | Active | inactive | inactive | Active | inactive | CC[C@H](C)[C@H](NC(=O)[C@H](C)NC(=O)CNC(=O)[C@H](CCCNC(=N)N)NC(=O)[C@@H](NC(=O)CCCC(C)=O)[C@@H](C)O)C(=O)N[C@H](C(=O)N[C@@H](CCC(N)=O)C(=O)N[C@H](C(=O)N1CCC[C@H]1C(=O)N[C@H](C(=O)N[C@@H](CC(C)C)C(=O)NCC(=O)N1CCC[C@H]1C(=O)N[C@H](C(=O)N[C@@H](CCC(N)=O)C(=O)N1CCC[C@H]1C(=O)N[C@H](C(=O)N[C@@H](CCCNC(=N)N)C(=O)N[C@H](C(N)=O)C(C)C)[C@@H](C)O)[C@@H](C)CC)[C@@H](C)O[C@H]1O[C@H](CO)[C@@H](O)[C@H](O)[C@@H]1O[C@@H]1O[C@H](CO)[C@@H](O[C@@H]2O[C@H](CO)[C@H](O)[C@H](O)[C@H]2O)[C@H](O)[C@H]1NC(C)=O)[C@@H](C)O[C@H]1O[C@H](CO)[C@@H](O)[C@H](O)[C@@H]1O[C@@H]1O[C@H](CO)[C@@H](O[C@@H]2O[C@H](CO)[C@H](O)[C@H](O)[C@H]2O)[C@H](O)[C@H]1NC(C)=O)[C@@H](C)CC ({Hexanoyl(5-oxo)}-TRGAIIQT(X2)PT(X2)LGPIQPTRV-NH2) |
| Active | Active | Active | Active | Active | Active | inactive | Active | Active | Active | inactive | inactive | Active | inactive | CC[C@H](C)[C@H](NC(=O)[C@H](C)NC(=O)CNC(=O)[C@H](CCCNC(=N)N)NC(=O)[C@@H](NC(=O)CCCC(C)=O)[C@@H](C)O)C(=O)N[C@H](C(=O)N[C@@H](CCC(N)=O)C(=O)N[C@H](C(=O)N1CCC[C@H]1C(=O)N[C@H](C(=O)N[C@@H](CC(C)C)C(=O)NCC(=O)N1CCC[C@H]1C(=O)N[C@H](C(=O)N[C@@H](CCC(N)=O)C(=O)N1CCC[C@H]1C(=O)N[C@H](C(=O)N[C@@H](CCCNC(=N)N)C(=O)N[C@H](C(N)=O)C(C)C)[C@@H](C)O[C@H]1O[C@H](CO)[C@@H](O)[C@H](O)[C@@H]1O[C@@H]1O[C@H](CO)[C@@H](O[C@@H]2O[C@H](CO)[C@H](O)[C@H](O)[C@H]2O)[C@H](O)[C@H]1NC(C)=O)[C@@H](C)CC)[C@@H](C)O)[C@@H](C)O[C@H]1O[C@H](CO)[C@@H](O)[C@H](O)[C@@H]1O[C@@H]1O[C@H](CO)[C@@H](O[C@@H]2O[C@H](CO)[C@H](O)[C@H](O)[C@H]2O)[C@H](O)[C@H]1NC(C)=O)[C@@H](C)CC ({Hexanoyl(5-oxo)}-TRGAIIQT(X2)PTLGPIQPT(X2)RV-NH2) |
